According to patent US8497283B2, “Autotaxin inhibitors” (Merck Patent GmbH, priority 2009, dated 2013):
pIC50: −log10 of the molar value.

Target: T1, recombinant autotaxin (Homo sapiens, UniProt Q13822)
T1 construct: made in house; host or cells: Hi5 insect cells (baculovirus)
Test: Autotaxin assay (Amplex Red fluorescence, LPC substrate)
Format: biochemical
Details: for pIC50: ten serial 1:3 dilutions starting at 30 μM, duplicates, 75 μM LPC, values given as upper bounds; for % CTRL (1E−05): percent of uninhibited control (100%) at 1E−05 M compound
Description: Autotaxin activity is measured indirectly by means of Amplex Red Reagent. In this course, Amplex Red is measured as fluorogenic indicator for generated H2O2. Autotaxin converts substrate lysophosphatidylcholine (LPC) to phosphocholine and lysophosphatidylic acid (LPA). After the conversion phosphocholine is reacted with alkaline phosphatase to obtain inorganic phosphate and choline. During the next step choline is oxidized with choline oxidase to yield betaine, whereby H2O2 is generated. H2O2 reacts with Amplex Red Reagent in the presence of peroxidase (Horseradish peroxidase) in an 1:1 stochiometry and yields highly fluorescent resorufin. The generated fluorescence is measured in a reaction-dependent kinetic mode in order to enable subtraction of fluorescence signals of possible other fluorescent compounds that are not part of the reaction from total measured fluorescence.
1.5 μl of a standard solution or of the compounds of the invention are dissolved in 20 mM Hepes pH 7.2 with maximally 7.7% DMSO in individual concentrations. The resulting solution is pre-incubated together with 10 μl (16 ng) of highly purified recombinant autotaxin in a black 384-hole microtiter plate for 30 min at 22° C.
Thereafter, the reaction is started through the addition of 5 μl L-a-lysophosphatidyl-choline (LPC), whereby the final concentration of LPC is 75 μM. The mixture is incubated for 90 min. at 37° C. After the incubation Amplex Red Reagent, peroxidase (Horseradish peroxidase) and choline oxidase are added. The fluorescence is immediately measured at a wavelength of 612 nm with an excitation wavelength of 485 nm in a “Tecan Ultra multimode” fluorescence reader. The activity of autotaxin is indirectly calculated via the amount of detected generated H2O2.
For IC50 analysis, ten serial 1:3 dilutions starting at 30 μM for each compound were run in duplicates.
IC50 values were calculated on normalized data. For normalization, control wells were added to each assay plate and the signal of uninhibited control wells was set to 100%, whereas the signal inhibited by 500 μM C14 LPA, (Avanti Polar Lipids, Cat#857120P) was set to 0%. Curves were fitted and IC50 values calculated by the following model using proprietory analysis software: Y=Bottom+(100−Bottom)/(1+10^((Log IC50−X)*HillSlope))
Where X is the logarithm of concentration. Y is the response;
Y starts at Bottom and goes to Top with a sigmoid shape.
Protein: Recombinant autotaxin (baculoviral Hi5 expression)
Substrate: L-a-lysophosphatidyl choline (chicken egg); Avanti Polar Lipids #830071P
Standard: C14 LPA, Avanti Polar Lipids, Cat#857120P
Detection Reagent Amplex Red Reagent; Invitrogen #A12222; dissolved in 1.923 ml of DMSO peroxidase Type VI-A (horseradish), Sigma #P6782; dissolved in 7.45 ml of test buffer, Choline Oxidase; Sigma #C5896; dissolved in 2.47 ml test buffer
Detection Reagent Mix: 1:100 dilution of Amplex Red Regent in test buffer
Test buffer: 200 mM Tris-HCl, Merck, Cat #1.08219, pH 7.9; 0.1% BSA, lipid free, Roche Cat#775835

Row | SMILES | pIC50 | % CTRL (1E−05)
1 | NC(=O)c1c(NC(=O)Nc2ccc(Cl)cc2)sc2c1CCN(C(=O)c1ccc3[nH]nnc3c1)C2 [Compound 1, 6-(1H-Benzotriazole-5-carbonyl)-2-[3-(4-chloro-phenyl)-ureido]-4,5,6,7-tetrahydro-thieno[2,3-c]pyridine-3-carboxylic acid amide] | > 6.00 | 
2 | NC(=O)c1c(NC(=O)Nc2ccc(Cl)cc2)sc2c1CCN(C(=O)c1ccc3[nH]c(=O)oc3c1)C2 [Compound 2, 2-[3-(4-Chloro-phenyl)-ureido]-6-(2-oxo-2,3-dihydro-benzooxazole-6-carbonyl)-4,5,6,7-tetrahydro-thieno[2,3-c]pyridine-3-carboxylic acid amide] | > 6.00 | 
3 | NC(=O)c1c(NC(=O)Nc2ccc(C(F)(F)F)cc2)sc2c1CCN(C(=O)c1ccc3[nH]nnc3c1)C2 [Compound 3, 6-(1H-Benzotriazole-5-carbonyl)-2-[3-(4-trifluoromethyl-phenyl)-ureido]-4,5,6,7-tetrahydro-thieno[2,3-c]pyridine-3-carboxylic acid amide] | > 6.00 | 
4 | CC(C)c1ccc(NC(=O)Nc2sc3c(c2C(N)=O)CCN(C(=O)c2ccc4[nH]nnc4c2)C3)cc1 [Compound 4, 6-(1H-Benzotriazole-5-carbonyl)-2-[3-(4-isopropyl-phenyl)-ureido]-4,5,6,7-tetrahydro-thieno[2,3-c]pyridine-3-carboxylic acid amide] | > 6.00 | 
5 | NC(=O)c1c(NC(=O)CCc2ccc(Cl)cc2)sc2c1CCN(C(=O)c1ccc3[nH]nnc3c1)C2 [Compound 5, 6-(1H-Benzotriazole-5-carbonyl)-2-[3-(4-chloro-phenyl)-propionylamino]-4,5,6,7-tetrahydro-thieno[2,3-c]pyridine-3-carboxylic acid amide] | > 6.00 | 
6 | NC(=O)c1c(NC(=O)CCc2ccc(Cl)cc2)sc2c1CCN(C(=O)c1ccc3[nH]c(=O)oc3c1)C2 [Compound 6, 2-[3-(4-Chloro-phenyl)-propionylamino]-6-(2-oxo-2,3-dihydro-benzooxazole-6-carbonyl)-4,5,6,7-tetrahydro-thieno[2,3-c]pyridine-3-carboxylic acid amide] | > 6.00 | 
7 | CC(C)c1ccc(NC(=O)Nc2sc3c(c2C(N)=O)CCN(C(=O)c2ccc4[nH]c(=O)oc4c2)C3)cc1 [Compound 7, 2-[3-(4-Isopropyl-phenyl)-ureido]-6-(2-oxo-2,3-dihydro-benzooxazole-6-carbonyl)-4,5,6,7-tetrahydro-thieno[2,3-c]pyridine-3-carboxylic acid amide] | > 6.00 | 
8 | NC(=O)c1c(NC(=O)Nc2cc(Cl)cc(Cl)c2)sc2c1CCN(C(=O)c1ccc3[nH]c(=O)oc3c1)C2 [Compound 8, 2-[3-(3,5-Dichloro-phenyl)-ureido]-6-(2-oxo-2,3-dihydro-benzooxazole-6-carbonyl)-4,5,6,7-tetrahydro-thieno[2,3-c]pyridine-3-carboxylic acid amide] | > 5.00 | 
9 | NC(=O)c1c(NC(=O)Cc2cccc(Cl)c2)sc2c1CCN(C(=O)c1ccc3[nH]nnc3c1)C2 [Compound 11, 6-(1H-Benzotriazole-5-carbonyl)-2-[2-(3-chloro-phenyl)-acetylamino]-4,5,6,7-tetrahydro-thieno[2,3-c]pyridine-3-carboxylic acid amide] | > 6.00 | 
10 | NC(=O)c1c(NC(=O)Nc2cc(Cl)cc(Cl)c2)sc2c1CCN(C(=O)c1ccc3[nH]nnc3c1)C2 [Compound 12, 6-(1H-Benzotriazole-5-carbonyl)-2-[3-(3,5-dichloro-phenyl)-ureido]-4,5,6,7-tetrahydro-thieno[2,3-c]pyridine-3-carboxylic acid amide] | > 5.00 | 
11 | NC(=O)c1c(NC(=O)Cc2cccc(Cl)c2)sc2c1CCN(C(=O)c1ccc3[nH]c(=O)oc3c1)C2 [Compound 13, 2-[2-(3-Chloro-phenyl)-acetylamino]-6-(2-oxo-2,3-dihydro-benzooxazole-6-carbonyl)-4,5,6,7-tetrahydro-thieno[2,3-c]pyridine-3-carboxylic acid amide] | > 6.00 | 
12 | NC(=O)c1c(NC(=O)Cc2ccc(Cl)cc2)sc2c1CCN(C(=O)c1ccc3[nH]c(=O)oc3c1)C2 [Compound 14, 2-[2-(4-Chloro-phenyl)-acetylamino]-6-(2-oxo-2,3-dihydro-benzooxazole-6-carbonyl)-4,5,6,7-tetrahydro-thieno[2,3-c]pyridine-3-carboxylic acid amide] | > 6.00 | 
13 | NC(=O)c1c(NC(=O)Nc2ccc(Cl)cc2F)sc2c1CCN(C(=O)c1ccc3[nH]nnc3c1)C2 [Compound 15, 6-(1H-Benzotriazole-5-carbonyl)-2-[3-(4-chloro-2-fluoro-phenyl)-ureido]-4,5,6,7-tetrahydro-thieno[2,3-c]pyridine-3-carboxylic acid amide] | > 6.00 | 
14 | NC(=O)c1c(NC(=O)Nc2ccc(Cl)cc2)sc2c1CCN(C(=O)c1cccnc1)C2 [Compound 19, 2-[3-(4-Chloro-phenyl)-ureido]-6-(pyridine-3-carbonyl)-4,5,6,7-tetrahydro-thieno[2,3-c]pyridine-3-carboxylic acid amide] | > 5.00 | 

Other lines, results leading:

Row | pIC50 | % CTRL (1E−05) | SMILES
15 | > 6.00 |  | NC(=O)c1c(NC(=O)Cc2ccc(Cl)cc2F)sc2c1CCN(C(=O)c1ccc3[nH]nnc3c1)C2 [Compound 9, 6-(1H-Benzotriazole-5-carbonyl)-2-[2-(4-chloro-2-fluoro-phenyl)-acetylamino]-4,5,6,7-tetrahydro-thieno[2,3-c]pyridine-3-carboxylic acid amide]
16 | > 6.00 |  | NC(=O)c1c(NC(=O)Cc2ccc(Cl)cc2F)sc2c1CCN(C(=O)c1ccc3[nH]c(=O)oc3c1)C2 [Compound 10, 2-[2-(4-Chloro-2-fluoro-phenyl)-acetylamino]-6-(2-oxo-2,3-dihydro-benzooxazole-6-carbonyl)-4,5,6,7-tetrahydro-thieno[2,3-c]pyridine-3-carboxylic acid amide]
17 | > 4.52 |  | NC(=O)c1c(NC(=O)Cc2ccc(Cl)cc2F)sc2c1CCN(Cc1cccnc1)C2 [Compound 16, 2-[2-(4-Chloro-2-fluoro-phenyl)-acetylamino]-6-pyridin-3-ylmethyl-4,5,6,7-tetrahydro-thieno[2,3-c]pyridine-3-carboxylic acid amide]
18 |  | 66% | NC(=O)c1c(NC(=O)Cc2ccc(Cl)cc2F)sc2c1CCN(Cc1ccccn1)C2 [Compound 17, 2-[2-(4-Chloro-2-fluoro-phenyl)-acetylamino]-6-pyridin-2-ylmethyl-4,5,6,7-tetrahydro-thieno[2,3-c]pyridine-3-carboxylic acid amide]
19 |  | 88% | NC(=O)c1c(NC(=O)Nc2ccc(Cl)cc2)sc2c1CCN(Cc1ccccn1)C2 [Compound 18, 2-[3-(4-Chloro-phenyl)-ureido]-6-pyridin-2-ylmethyl-4,5,6,7-tetrahydro-thieno[2,3-c]pyridine-3-carboxylic acid amide]
20 | > 5.00 |  | NC(=O)c1c(NC(=O)Nc2ccc(Cl)cc2)sc2c1CCN(Cc1ccncc1)C2 [Compound 20, 2-[3-(4-Chloro-phenyl)-ureido]-6-pyridin-4-ylmethyl-4,5,6,7-tetrahydro-thieno[2,3-c]pyridine-3-carboxylic acid amide]
21 | > 5.00 |  | NC(=O)c1c(NC(=O)Cc2ccc(Cl)cc2F)sc2c1CCN(Cc1ccncc1)C2 [Compound 21, 2-[2-(4-Chloro-2-fluoro-phenyl)-acetylamino]-6-pyridin-4-ylmethyl-4,5,6,7-tetrahydro-thieno[2,3-c]pyridine-3-carboxylic acid amide]
22 | > 5.00 |  | NC(=O)c1c(NC(=O)Cc2ccc(Cl)cc2F)sc2c1CCN(C(=O)Cc1cccnc1)C2 [Compound 22, 2-[2-(4-Chloro-2-fluoro-phenyl)-acetylamino]-6-(2-pyridin-3-yl-acetyl)-4,5,6,7-tetrahydro-thieno[2,3-c]pyridine-3-carboxylic acid amide]
23 | > 5.00 |  | NC(=O)c1c(NC(=O)Cc2ccc(Cl)cc2F)sc2c1CCN(C(=O)Cc1ccncc1)C2 [Compound 23, 2-[2-(4-Chloro-2-fluoro-phenyl)-acetylamino]-6-(2-pyridin-4-yl-acetyl)-4,5,6,7-tetrahydro-thieno[2,3-c]pyridine-3-carboxylic acid amide]
